Where a name gives a salt, the structure may show the parent alone.
Columns and labels:
Format in all cases: binding
α2-adrenergic receptors = assay: Affinity for α2-adrenergic receptors in the rat, competition with [3H]-RX 821,002; details: rat cerebral cortex membranes, 0.4 nM [3H]-RX 821,002, 60 minutes at 22° C.
Description: Determination of the Affinity for α2 -adrenergic Receptors in the Rat
The affinity was determined by competition experiments with [^3 H]-RX 821,002. The membranes are prepared from the cerebral cortex of the rat and are incubated in triplicate with 0.4 nM [^3 H]-RX 821,002 and the compound being tested in a final volume of 1.0 ml, for 60 minutes at 22° C. The incubation buffer contains […] TRIS-HCl (pH 7.5), 1 mM EDTA and 100 μM GppNHp. The non-specific binding is determined using 10 μM phentolamine.
(§1) At the end of the incubation, the incubation medium is filtered through WHATMAN GF/B filters impregnated with 0.1% of polyethylenimine and washed three times with 5 ml of cooled buffer. The radioactivity retained on the filters is determined by liquid scintillation counting. The binding isotherms are analysed by non-linear regression.

[1] = target: T1, noradrenaline reuptake sites (Rattus norvegicus, UniProt Q63380); assay: Affinity for noradrenaline reuptake sites in the rat, competition with [3H]-nisoxetine; details: rat frontal cortex membranes, 2 nM [3H]-nisoxetine, 4 hours at 4° C.
T1 construct: The membranes are prepared from the frontal cortex of the rat; from tissue; host or cells: rat frontal cortex membranes
Description: Determination of the Affinity for Noradrenaline Reuptake Sites in the Rat
The affinity was determined by competition experiments using [^3 H]-nisoxetine. The membranes are prepared from the frontal cortex of the rat and are incubated in triplicate with 2 nM [^3 H]-nisoxetine and the compound being tested in a final volume of 0.5 ml, for 4 hours at 4° C. The incubation buffer contains 50 mM TRIS-HCl (pH 7.4), 120 mM NaCl and 5 mM KCl. The non-specific binding is determined using 10 μM desipramine.
as §1

serotonin reuptake sites = target: T2, serotonin reuptake sites (Rattus norvegicus, UniProt P31652); assay: Affinity for serotonin reuptake sites in the rat, competition with [3H]-paroxetine; details: rat frontal cortex membranes, 0.25 nM [3H]-paroxetine, 2 hours at 25° C.
T2 construct: The membranes are prepared from the frontal cortex of the rat; from tissue; host or cells: rat frontal cortex membranes
Description: Determination of the Affinity for Serotonin Reuptake Sites in the Rat
The affinity was determined by competition experiments using [^3 H]-paroxetine. The membranes are prepared from the frontal cortex of the rat and are incubated in triplicate with 0.25 nM [^3 H]-paroxetine and the compound being tested in a final volume of 0.4 ml, for 2 hours at 25° C. The incubation buffer contains 50 mM TRIS-HCl (pH 7.4), 120 mM NaCl and 5 mM KCN. The non-specific binding is determined using 10 μM citalopram.
as §1

T2 sequence (P31652 whole entry): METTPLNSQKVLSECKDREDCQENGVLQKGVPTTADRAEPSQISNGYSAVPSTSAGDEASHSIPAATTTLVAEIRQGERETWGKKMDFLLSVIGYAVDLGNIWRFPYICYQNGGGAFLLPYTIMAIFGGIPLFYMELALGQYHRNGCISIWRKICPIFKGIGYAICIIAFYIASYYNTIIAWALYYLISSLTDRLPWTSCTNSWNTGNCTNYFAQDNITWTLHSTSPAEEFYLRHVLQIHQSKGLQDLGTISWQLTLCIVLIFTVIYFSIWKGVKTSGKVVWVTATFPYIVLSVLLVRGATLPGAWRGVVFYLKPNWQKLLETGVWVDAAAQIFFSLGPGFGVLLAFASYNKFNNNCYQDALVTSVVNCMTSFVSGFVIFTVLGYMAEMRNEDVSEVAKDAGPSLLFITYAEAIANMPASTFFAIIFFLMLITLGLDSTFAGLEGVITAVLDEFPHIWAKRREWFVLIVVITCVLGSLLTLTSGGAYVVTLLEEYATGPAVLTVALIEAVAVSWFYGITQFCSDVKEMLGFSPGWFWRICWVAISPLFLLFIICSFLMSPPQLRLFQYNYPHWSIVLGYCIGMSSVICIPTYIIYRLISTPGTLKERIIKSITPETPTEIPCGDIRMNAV
T1 sequence (Q63380 1-617): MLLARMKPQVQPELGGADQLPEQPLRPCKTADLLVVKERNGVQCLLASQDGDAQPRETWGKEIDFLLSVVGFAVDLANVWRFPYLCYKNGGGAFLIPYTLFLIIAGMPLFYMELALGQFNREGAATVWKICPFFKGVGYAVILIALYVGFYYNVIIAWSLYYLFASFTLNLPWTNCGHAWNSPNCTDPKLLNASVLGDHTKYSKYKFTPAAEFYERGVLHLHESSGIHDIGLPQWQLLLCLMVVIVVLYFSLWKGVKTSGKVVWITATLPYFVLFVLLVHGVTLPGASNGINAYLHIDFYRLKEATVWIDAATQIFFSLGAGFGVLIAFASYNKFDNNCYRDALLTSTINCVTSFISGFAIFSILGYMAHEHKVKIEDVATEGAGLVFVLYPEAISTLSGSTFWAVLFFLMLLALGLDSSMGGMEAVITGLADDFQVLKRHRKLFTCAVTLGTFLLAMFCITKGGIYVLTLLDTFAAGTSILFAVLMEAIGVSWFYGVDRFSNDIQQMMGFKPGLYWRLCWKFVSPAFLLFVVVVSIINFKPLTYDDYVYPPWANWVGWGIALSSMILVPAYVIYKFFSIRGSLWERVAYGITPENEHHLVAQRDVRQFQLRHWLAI

Structure (SMILES): C1=NCC(CC2Cc3ccccc3C2)N1 (stereo not drawn) [Example 22, 4-(2,3-Dihydro-1H-inden-2-ylmethyl)-4,5-dihydro-1H-imidazole hemi-fumarate]
- pKi (α2-adrenergic receptors): 8.8

Structure (SMILES): C1=N[C@H](CC2=Cc3ccccc3CC2)CN1 [Example 2, (4R)-4-(3,4-dihydro-2-naphthylmethyl)-4,5-dihydro-1H-imidazole fumarate]
- Ki [1]: 15.8 nM

Structure (SMILES): COc1cccc2c1C=C(CC1CNC=N1)CC2.O=C(O)/C=C/C(=O)O (stereo not drawn) [Example 12, 4-[(8-Methoxy-3,4-dihydro-2-naphthyl)methyl]-4,5-dihydro-1H-imidazole fumarate]
- pKi (serotonin reuptake sites): 7.8
